Results from patent US20240409558A1, “IRREVERSIBLE INHIBITORS OF KRAS” (BIOMEA FUSION, INC., priority 2021, published 2024).
Where two headings read alike, the source gives them in different places.

Test system: human KRAS G12C mutated cell line MIA PaCa-2
Assay: Inhibition of proliferation of MIA PaCa-2 cells (CellTiter-Glo, 7 day)
Assay type: cell-based
Settings: 168 h
Description: The present example evaluates the ability of compounds provided herein to inhibit proliferation of KRAS mutant cells.
The proliferation inhibitory effect was investigated in the human KRAS G12C mutated cell line MIA PaCa-2 (Yunis et al., 1977, Int. J. Cancer 19(1):128-135; ATCC catalog no. CRL-1420). Cells were maintained in RPMI-1640 medium (ThermoFisher catalog no. 61870036) supplemented with 10% of Heat Inactivated FBS (ThermoFisher catalog no. A31605) and 1% Pen-Strep (ThermoFisher catalog no. 10378016) and cultured at 37° C. in a humidified incubator with 5% CO2. Cell lines were grown by adhering to culture flasks, and the cells were maintained in a range 70%-80% confluency.
ATP is present in all metabolically active cells and is considered as a marker for cell viability and proliferation. Metabolic cell activity was determined using the CellTiter-Glo kit (Promega catalog no. G7572), an ATP monitoring system based on the production of luminescence by the reaction of ATP with added UltraGlo® recombinant luciferase (Kawano et al., 2016, PLOS One, 8; 11(7):e0158888), according to the supplier's experimental recommendations. The assay was based on a 96 well plate format.
Test compounds were dissolved at 10 mM in DMSO (Sigma catalog no. D8418; purity >99.9%) and stored at −20° C. Eight concentrations of test compound were assessed in duplicate in an individual test occasion in parallel in the selected cell lines. MRTX-849 and AMG-510 were used as reference compounds and tested in duplicate at eight concentrations. 100% of proliferation is represented by the untreated cells (0.2% DMSO).
(§1) On the day of the experiment (TO), cells were detached with TrypLE (ThermoFisher catalog no. 12604054) and quantified using the Vi-CELL XR Cell Viability (Beckman Coulter) analyzer and diluted with fresh medium to obtain the cell density of about 1000 cells per 200 μL medium. 200 μL of cell suspension were added into wells in the 96 well plate.
After 2 hours from seeding cells, compounds were added using a D300e compound dispenser (Tecan Trading AG) at desired concentrations with shaking between each compound dispensed. Cell plates containing 200 μL/well were incubated at 37° C. in a humidified incubator with 5% CO2.
On day T3, 150 μL of growth media per well were removed from plates containing the samples, 150 uL fresh growth media were added to each well, and fresh compounds were added using a D300e compound dispenser (Tecan Trading AG) at desired concentrations with shaking between each compound dispensed. Cell plates containing 200 uL/well were incubated at 37° C. in a humidified incubator with 5% CO2. On day T7 plates containing the samples were equilibrated at room temperature for approximately 15 min, and then 40 μL/well of the Promega CellTiterGlo® reagent was added. Contents were mixed for 30 minutes on an orbital shaker to induce cell lysis. Luminescence was read using a Synergy Neo 2 (Agilent Technologies.
Data was expressed as % of inhibition compared to the 0.2% DMSO negative control, and is calculated as follows: % inhibition=100−[(RLU sample)×100/(RLU controls*)], where * indicates the average for 0.2% DMSO. […]
as §1, with “12604054),” for “12604054) and”, “resuspended in” for “diluted with”, “at a” for “to obtain the”, “to each well of a” for “into wells in the”
Two hours after seeding cells, compounds were added at desired concentrations using a D300e compound dispenser (Tecan Trading AG) with shaking after each compound addition. Assay plates were incubated at 37° C. in a humidified incubator with 5% CO2.
On day 3 (T3) 150 μL of medium from assay plates were removed. 150 μL fresh medium and compounds were added at desired concentrations using a D300e compound dispenser (Tecan Trading AG) with shaking after each compound addition. […]

[1] = Table 4, 7 day, mean, read-out: MIA PaCa-2 IC50 (μM) 7 day Mean
[2] = Table 3, 7 day, mean, read-out: MIA PaCa-2 IC50 (μM) 7 day Mean

IC50 [1] [µM] | IC50 [2] [µM] | Structure (SMILES) | further results
> 1 | – | F[C@H]1CN2CCC[C@@]2(COc2cc(N3C[C@H]4C[C@@H]3CN4)c3ncc(-c4cccc5cccc(Cl)c45)cc3n2)C1 [Compound 422, 7-(8-chloro-1-naphthyl)-4-[(1R,4R)-2,5-diazabicyclo[2.2.1]heptan-2-y1]-2-[[(2R,8S)-2-fluoro-1,2,3,5,6,7-hexahydropyrrolizin-8-yl]methoxy]-1,5-naphthyridine] | –
– | > 1 | C=CC(=O)N1C[C@H]2C[C@@H]1CN2c1nc(OC[C@@]23CCCN2C[C@H](F)C3)nc2cc(-c3cc(O)cc(Cl)c3C3CC3)c(F)cc12 [Compound 318, 1-[(1R,4R)-5-[7-(3-chloro-2-cyclopropyl-5-hydroxy-phenyl)-6-fluoro-2-[[(2R,8S)-2-fluoro-1,2,3,5,6,7-hexahydropyrrolizin-8-yl]methoxy]quinazolin-4-yl]-2,5-diazabicyclo[2.2.1]heptan-2-yl]prop-2-en-1-one] | –
> 1 | – | Oc1cc(Cl)c(C2CC2)c(-c2ccc3c(N4C[C@H]5C[C@@H]4CN5)nc(OC[C@@]45CCCN4C[C@H](F)C5)nc3c2F)c1 [Compound 424, 3-chloro-4-cyclopropyl-5-[4-[(1R,4R)-2,5-diazabicyclo[2.2.1]heptan-2-y1]-8-fluoro-2-[[(2R,8S)-2-fluoro-1,2,3,5,6,7-hexahydropyrrolizin-8-yl]methoxy]quinazolin-7-yl]phenol] | –
> 1 | – | N#C[C@H]1CNCCN1c1nc(OC[C@@]23CCCN2C[C@H](F)C3)nc2cc(F)c(-c3cccc4cccc(Cl)c34)cc12 [Compound 407, (2R)-1-[6-(8-chloro-1-naphthyl)-7-fluoro-2-[[(2R,8S)-2-fluoro-1,2,3,5,6,7-hexahydropyrrolizin-8-yl]methoxy]quinazolin-4-yl]piperazine-2-carbonitrile] | –
– | 0.0373 | C=CC(=O)N1CCC(c2nc(OC[C@@]34CCCN3C[C@H](F)C4)nc3c(F)c(-c4cc(O)cc5ccc(F)c(F)c45)ncc23)C[C@@H]1C (stereo partly drawn) [Compound 331, 1-[(2S)-4-[7-(7,8-difluoro-3-hydroxy-1-naphthyl)-8-fluoro-2-[[(2R,8S)-2-fluoro-1,2,3,5,6,7-hexahydropyrrolizin-8-yl]methoxy]pyrido[4,3-d]pyrimidin-4-y1]-2-methyl-1-piperidyl]prop-2-en-1-one] | –
6.74 | – | CC1(c2nc(OC[C@@]34CCCN3C[C@H](F)C4)nc3c(F)c(-c4cc(O)cc5ccc(F)c(F)c45)ncc23)CCNCC1 [Compound 444] | –
> 1 | – | Fc1cc2c(N3C[C@H]4C[C@@H]3CN4)nc(OC[C@@]34CCCN3C[C@H](F)C4)nc2cc1-c1cccc2cccc(Cl)c12 [Compound 411, 7-(8-chloro-1-naphthyl)-4-[(1R,4R)-2,5-diazabicyclo[2.2.1]heptan-2-y1]-6-fluoro-2-[[(2R,8S)-2-fluoro-1,2,3,5,6,7-hexahydropyrrolizin-8-yl]methoxy]quinazoline] | –
– | > 1 | C=CC(=O)N1CCN(c2nc(OC[C@@]34CCCN3C[C@H](F)C4)nc3cc(-c4cc(O)cc(Cl)c4C4CC4)cnc23)C2(CC2)C1 [Compound 319, 1-[4-[7-(3-chloro-2-cyclopropyl-5-hydroxy-phenyl)-2-[[(2R,8S)-2-fluoro-1,2,3,5,6,7-hexahydropyrrolizin-8-yl]methoxy]pyrido[3,2-d]pyrimidin-4-yl]-4,7-diazaspiro[2.5]octan-7-yl]prop-2-en-1-one] | –
> 1 | – | Oc1cc(-c2ncc3c(C4CCNCC4)nc(OC[C@@]45CCCN4C[C@H](F)C5)nc3c2F)c2c(F)c(F)ccc2c1 [Compound 435, 5,6-difluoro-4-[8-fluoro-2-[[(2R,8S)-2-fluoro-1,2,3,5,6,7-hexahydropyrrolizin-8-yl]methoxy]-4-(4-piperidyl)pyrido[4,3-d]pyrimidin-7-yl]naphthalen-2-ol] | –
– | > 1 | C=CC(=O)N1CCN(c2nc(OC[C@@]34CCCN3C[C@H](F)C4)nc3cc(-c4cccc5cccc(Cl)c45)c(F)cc23)C2(CC2)C1 [Compound 315] | –
– | > 1 | C=CC(=O)N1CCC2(c3nc(OC[C@@]45CCCN4C[C@H](F)C5)nc4c(F)c(-c5cc(O)cc6ccccc56)ncc34)CC2C1 (stereo partly drawn) [Compound 310, 1-[6-[8-fluoro-2-[[(2R,8S)-2-fluoro-1,2,3,5,6,7-hexahydropyrrolizin-8-yl]methoxy]-7-(3-hydroxy-1-naphthyl)pyrido[4,3-d]pyrimidin-4-yl]-3-azabicyclo[4.1.0]heptan-3-yl]prop-2-en-1-one] | –
– | – | C=CC(=O)N1[C@@H]2CC[C@H]1CN(c1nc(OC[C@@]34CCCN3C[C@H](F)C4)nc3c(F)c(-c4cc(O)cc(Cl)c4C4CC4)ccc13)C2 [Compound 1, 1-((1R,5S)-3-(7-(3-chloro-2-cyclopropyl-5-hydroxyphenyl)-8-fluoro-2-(((2R,7aS)-2-fluorotetrahydro-1H-pyrrolizin-7a(5H)-yl)methoxy)quinazolin-4-yl)-3,8-diazabicyclo[3.2.1]octan-8-yl)prop-2-en-1-one] | IC50 (Table 1, CellTiter-Glo luminescence read on day 7, read-out: MIA PaCa-2 IC50): 0.000742 µM
> 1 | – | Oc1cc(Cl)c(C2CC2)c(-c2cnc3c(N4CCNC5(CC5)C4)nc(OC[C@@]45CCCN4C[C@H](F)C5)nc3c2)c1 [Compound 410] | –
– | > 1 | C=CC(=O)N1C[C@H]2C[C@@H]1CN2c1nc(OC[C@@]23CCCN2C[C@H](F)C3)nc2cc(-c3cccc4cccc(Cl)c34)c(F)cc12 [Compound 322, 1-[(1R,4R)-5-[7-(8-chloro-1-naphthyl)-6-fluoro-2-[[(2R,8S)-2-fluoro-1,2,3,5,6,7-hexahydropyrrolizin-8-yl]methoxy]quinazolin-4-y1]-2,5-diazabicyclo[2.2.1]heptan-2-yl]prop-2-en-1-one] | –
– | – | Oc1cc(Cl)c(C2CC2)c(-c2ccc3c(N4C[C@H]5CC[C@@H](C4)N5)nc(OC[C@@]45CCCN4C[C@H](F)C5)nc3c2F)c1 [Compound 201, 3-(4-((1R,5S)-3,8-diazabicyclo[3.2.1]octan-3-yl)-8-fluoro-2-(((2R,7aS)-2-fluorotetrahydro-1H-pyrrolizin-7a(5H)-yl)methoxy)quinazolin-7-yl)-5-chloro-4-cyclopropylphenol] | IC50 (Table 2, CellTiter-Glo luminescence read on day 7, read-out: MIA PaCa-2 IC50): 0.358 µM
> 1 | – | CCC1(c2nc(OC[C@@]34CCCN3C[C@H](F)C4)nc3c(F)c(-c4cc(O)cc(Cl)c4C4CC4)ncc23)CCNCC1 [Compound 441] | –

Structure (SMILES) | IC50 [1] [µM] | IC50 [2] [µM] | further results
Cn1ccnc1-c1c(F)cccc1-c1cnc2c(N3CC4CCC(C3)N4)nc(OC[C@@]34CCCN3C[C@H](F)C4)nc2c1 [Compound 427, 4-(3,8-diazabicyclo[3.2.1]octan-3-yl)-2-[[(2R,8S)-2-fluoro-1,2,3,5,6,7-hexahydropyrrolizin-8-yl]methoxy]-7-[3-fluoro-2-(1-methylimidazol-2-yl)phenyl]pyrido[3,2-d]pyrimidine] | > 1 | – | –
C=CC(=O)N1C2CCC1CN(c1nc(OC[C@@]34CCCN3C[C@H](F)C4)nc3cc(-c4cc(O)cc(Cl)c4C4CC4)c(F)cc13)C2 [Compound 308, 1-[3-[7-(3-chloro-2-cyclopropyl-5-hydroxy-phenyl)-6-fluoro-2-[[(2R,8S)-2-fluoro-1,2,3,5,6,7-hexahydropyrrolizin-8-yl]methoxy]quinazolin-4-y1]-3,8-diazabicyclo[3.2.1]octan-8-yl]prop-2-en-1-one] | – | 0.0282 | –
Oc1cc(Cl)c(C2CC2)c(-c2cc3nc(OC[C@@]45CCCN4C[C@H](F)C5)nc(N4CC5CCC(C4)N5)c3cc2F)c1 [Compound 404, 3-chloro-4-cyclopropyl-5-[4-(3,8-diazabicyclo[3.2.1]octan-3-yl)-6-fluoro-2-[[(2R,8S)-2-fluoro-1,2,3,5,6,7-hexahydropyrrolizin-8-yl]methoxy]quinazolin-7-yl]phenol] | > 1 | – | –
